Measurements reported in paper PMC6435784, “Gut Microbiota-Based Pharmacokinetics and the Antidepressant Mechanism of Paeoniflorin” (Frontiers in Pharmacology, 2019).

Key:
carboxylesterase = assay: Effect of BNPP inhibition on the transformation of paeoniflorin in intestinal culture system; type: cell-based, rat gut microbiota; settings: 24 h, 1 mg/mL paeoniflorin
Protocol: The colon contents of six rats were pooled, and 5 g of the sample was transferred to a ziplock bag and then mixed thoroughly with anaerobic medium (100 mL). After mixing completely, the cultures were stored at 37°C and preincubated for 1 h. Then, 10 μL of paeoniflorin (100 mg/mL) was added to fresh rat intestinal microbial culture (990 μL) under anaerobic conditions of N2, with a final concentration of 1 mg/mL of paeoniflorin in the culture system ([Hattori et al., 1988]). The inactivated bacteria solution was used as a negative control. Cultures were incubated at 37°C for 0, 2, 6, 12, and 24 h, respectively. After terminated the reaction with 3 volumes of acetonitrile, samples were vortexed for 30 s and then centrifuged at 16,162 g for 5 min. A total of 100 μL of the supernatant were transferred to a centrifuge tube, centrifuged at 16,162 g for 5 min and filtered through a 0.45 μm microporous membrane. Finally, 5 μL of the filtrate solution was collected for analysis.
Consistent with the above steps, the carboxylesterase inhibitor BNPP (0.1, 1, 3, and 10 mM) was added to the culture system at different concentrations with a final concentration of 1 mg/mL paeoniflorin. Then, the cultures were incubated at 37°C for 0, 2, 6, 12, and 24 h. The intestinal culture system without BNPP was used as a control group.

[1] = Brain distribution of paeoniflorin and benzoic acid in rats; type: in vivo, rat; settings: at 2 h after oral administration of paeoniflorin 20 mg/kg
[2] = Excretion of paeoniflorin in rats (urine, feces, bile); type: in vivo, rat; settings: normal rats, paeoniflorin 20 mg/kg, excreted form = labelled substance, n = 6
[3] = Pharmacokinetics of paeoniflorin in pseudo-germ-free (PGF) rats; type: in vivo; settings: SD, rat, in vivo, oral paeoniflorin 20 mg/kg, plasma analyte = labelled substance; for AUC(0-t) / Cmax: po, 20 mg/kg
Protocol: Chromatography separation was performed using an XSS T3 column (3.5 μm, 2.1 mm × 100 mm, Waters, Milford, MA, United States) with the column temperature maintained at 40°C at a flow rate of 0.4 mL/min. […] The gradient was as follows: 25% eluent B for 2 min; 25–85% B from 2 to 4 min; 85–25% B from 4 to 5 min and held at 25% from 5 to 7 min. The autosampler temperature was set to 4°C. Mass spectrometry was carried out using multiple reaction monitoring mode (MRM). […] The nebulizing gas flow rate was 2.8 L/min, the drying gas flow rate was 10 L/min, and the heating gas flow rate was 10 L/min. […] The remaining fourteen SD rats were orally administered saline equivalently. Two days after administration, pharmacokinetic experiments were performed. […] Plasma samples were immediately stored at 4°C until analysis. Statistical analyses were conducted using two-way ANOVA and Student’s t-test with GraphPad Prism Version 5 (GraphPad Software, La Jolla, CA, United States). The data are expressed as the means ± standard deviation. […] DAS 3.0 was used to calculate the plasma pharmacokinetic parameters.

[4] = Excretion of paeoniflorin in rats (urine, feces, bile); type: in vivo, rat; settings: normal rats, oral paeoniflorin 20 mg/kg, excreted form = labelled substance, n = 6
Protocol: Then, urine samples and feces samples were collected at 0, 6, 12, 24, 48, 72, and 96 h.

[5] = Pharmacokinetics of paeoniflorin in normal SD rats (plasma, LC-MS/MS); type: in vivo, rat; settings: normal rats, oral paeoniflorin 20 mg/kg, plasma analyte = labelled substance
Protocol: Chromatography separation was performed using an XSS T3 column (3.5 μm, 2.1 mm × 100 mm, Waters, Milford, MA, United States) with the column temperature maintained at 40°C at a flow rate of 0.4 mL/min. […] The gradient was as follows: 25% eluent B for 2 min; 25–85% B from 2 to 4 min; 85–25% B from 4 to 5 min and held at 25% from 5 to 7 min. The autosampler temperature was set to 4°C. Mass spectrometry was carried out using multiple reaction monitoring mode (MRM). […] The nebulizing gas flow rate was 2.8 L/min, the drying gas flow rate was 10 L/min, and the heating gas flow rate was 10 L/min. […] Plasma samples were immediately stored at 4°C until analysis. The method validation assays were carried out in terms of specificity, linearity, sensitivity, accuracy, precisions, recovery, matrix effect and stability. […] Statistical analyses were conducted using two-way ANOVA and Student’s t-test with GraphPad Prism Version 5 (GraphPad Software, La Jolla, CA, United States). The data are expressed as the means ± standard deviation. […] DAS 3.0 was used to calculate the plasma pharmacokinetic parameters.

depressed rats = assay: Chronic unpredictable stress depression model, sucrose preference test; type: in vivo, rat; settings: 10 mg/kg, after 2 weeks of drug treatment, compared with model group, n = 8
Protocol: Forty rats were randomly divided into the following groups (n = 8): the normal control group, the model control group, the fluoxetine group (10 mg/kg), the paeoniflorin low-dose group (10 mg/kg), and the paeoniflorin high-dose group (20 mg/kg). Except for the blank control group, the groups were randomly exposed to two stressors, including behavioral constraints, ice water swimming, electric shock, cold stimulation, clip tail, wet bedding, light/dark reversed, shaking, foods and water deprivation, continuously for 8 weeks to establish a chronic unpredictable stress model. The sucrose preference test was performed at 0 and 14 days after administration.

[6] = PGF rats (antibiotic pretreated)

O=[N+]([O-])c1ccc(OP(=O)(O)Oc2ccc([N+](=O)[O-])cc2)cc1 [BNPP, bis-p-nitrophenyl phosphate]
inhibition rate of the conversion of paeoniflorin to benzoic acid (carboxylesterase; BNPP 0.1 mM): 8.2% | inhibition rate of the conversion of paeoniflorin to benzoic acid (carboxylesterase; BNPP 1 mM): 46.8% | inhibition rate of the conversion of paeoniflorin to benzoic acid (carboxylesterase; BNPP 3 mM): 63.7% | inhibition rate of the conversion of paeoniflorin to benzoic acid (carboxylesterase; BNPP 10 mM): 74.9%

O=C(O)c1ccccc1 [Benzoic acid, benzoic acid]
detection in SD rat brains [1]: considerable number | cumulative excretion rate in bile for 60 h [2]: No benzoic acid was detected | AUC(0-t) ([3]; PGF rats (antibiotic pretreated), read-out: AUC (0-t)): 94.8 ± 19.8 ng·h/mL | Cmax ([3]; PGF rats (antibiotic pretreated), read-out: Cmax): 27.6 ± 2.63 ng/mL | AUC(0-t) ([3]; PGF rats, Figures 3B, 3C, read-out: AUC(0-t) (unit inferred)): 68.5 ng·h/mL | Cmax ([3]; PGF rats, Figures 3B, 3C, read-out: Cmax (unit inferred)): 25.4 ng/mL | AUC(0-inf) [3, 6]: 97.2 ± 20.2 ng·h/mL | Tmax [3, 6]: 35.8 ± 14.3 min | 96-h cumulative excretion in feces [4]: 0.15% | 96-h cumulative excretion in urine [4]: 42.13% | AUC(0-t) ([5]; SD, rat, in vivo, po, 20 mg/kg, Figures 2C, 3B, 3C, read-out: AUC(0-t) (unit inferred)): 151 ng·h/mL | Cmax ([5]; SD, rat, in vivo, po, 20 mg/kg, Figures 2C, 3B, 3C, read-out: Cmax (unit inferred)): 55.6 ng/mL | AUC(0-t) ([5]; SD, rat, in vivo, po, 20 mg/kg, n = 6, read-out: AUC (0-t)): 151 ng·h/mL | Cmax ([5]; SD, rat, in vivo, po, 20 mg/kg, n = 6, read-out: Cmax): 55.6 ± 12.1 ng/mL | Cmax ([5]; SD, rat, in vivo, po, 20 mg/kg, read-out: Cmax): 55.6 ng/mL | AUC(0-inf) ([5]; SD, rat, in vivo, n = 6): 162 ± 40.1 ng·h/mL | Tmax ([5]; SD, rat, in vivo, n = 6): 47.5 ± 11.3 min | AUC(0-t) ([5]; n = 6): 151.24 ± 29.59 ng·h/mL

CNCCC(Oc1ccc(C(F)(F)F)cc1)c1ccccc1 (centres unmarked) [fluoxetine, reference compound]
sucrose preference value (depressed rats): significantly higher than that of the model control group
